From patent EP2123668A1, “Immunogenic polypeptides that mimic the surface polysaccharide O-antigen from serotype 2A shigella flexneri, method for obtaining the same, and their use in vaccine and diagnostic compositions” (INSTITUT PASTEUR, priority 2008, dated 2009)
Read-outs that look alike come from different tables or passages of the source. No end group written: not given here.

Key:
F22-4 antibody = experiment: ITC microcalorimetry; format: binding, murine
Source text: ITC experiments with F22-4 antibody and several chemically synthesized oligosaccharidic fragments of O-Ag 2a lead to two major results.

mAb F22-4 [1] = experiment: StopFlow antibody-ligand binding; set-up: species or system murine
LPS/F22-4 [2] = experiment: ELISA inhibition of LPS/F22-4 binding; set-up: species or system murine
mAb F22-4 [3] = experiment: Biacore antibody-ligand binding (equilibrium and kinetic analysis); set-up: species or system murine
LPS/F22-4 [4] = conditions: cited from earlier work
[5] = system: S. flexneri 2a mAb (F22-4); experiment: Reactivity of selected or conjugated peptides with the F22-4 mAb; format: binding, murine; conditions: conjugated peptides, coupled to BSA
Source text: Two protective mAbs directed against S. flexneri LPS 2a (IgG C1-7 and IgG F22-4) were used for mimotope selection using the two libraries displaying 12 amino acid-long inserts.
The peptides have been synthesized with a flanking region AEGEF at the N-terminal and DPAKC at the C-terminal. The peptides have been conjugated to maleimide-activated bovine serum albumin (BSA) and to maleimide-activated keyhole limpet hemocyanine (KLH) using a kit from Pierce. The seven different sequences have been selected by Partner 4, all showing good reactivity with the S. flexneri 2a mAb (F22-4) and being inhibited by the LPS. Five of the sequences, B24, B1, C8, C26 and C17 (shown below in bold) have been chosen for further analyzes. The reason that the peptides C22 and C3 have been omitted are that they contain cysteine and the conjugation procedure that we exploited used cysteine for coupling to the protein. The conjugated peptides have been tested for reactivity with the F22-4 mAb and were positive when coupled to BSA. […] Sequences of peptides selected using the S. flexneri 2a specific mAb F22-4

mAb F22-4 [6] = experiment: Biacore antibody-ligand binding (equilibrium and kinetic analysis); set-up: species or system murine; conditions: equilibrium analysis; read-out: Biacore Eq KD
LPS/F22-4 [7] = experiment: ELISA inhibition of LPS/F22-4 binding; set-up: species or system murine; remark: listed apart in the source
[8] = PBS buffer at 25°C, read-out: KD
[9] = Table 6 recapitulation, read-out: microcal KD
[10] = equilibrium analysis, read-out: Biacore Eq KD
[11] = kinetic analysis, read-out: Biacore Cin KD

Row | Molecule | ΔH (Kcal/mol) (F22-4 antibody; PBS buffer at 25°C) | ΔS (cal/mol/K) (F22-4 antibody; PBS buffer at 25°C) | Kd (F22-4 antibody; [8]) | Kd (mAb F22-4 [1]) | StopFlow koff(s-1) (mAb F22-4 [1]) | StopFlow kon(M-1.s-1) (mAb F22-4 [1]) | Kd (F22-4 antibody; [9]) | IC50 (LPS/F22-4 [2]) | Kd (mAb F22-4 [3]; [10]) | Biacore Cin koff(s-1) (mAb F22-4 [3]; kinetic analysis) | Kd (mAb F22-4 [3]; [11]) | IC50 compared with B(E)CDA'B'(E')C' (LPS/F22-4 [4]; reference (12)) | effectiveness in inhibition compared with ECD (LPS/F22-4 [4]; LPS/F22-4 inhibition studies (12), (13)) | reactivity with the F22-4 mAb [5] | Kd (mAb F22-4 [6]) | IC50 (LPS/F22-4 [7])
1 | COC1OC(C)C(O)C(O)C1OC1OC(CO)C(O)C(OC2OC(C)C(OC3OC(CO)C(O)C(O)C3O)C(O)C2O)C1NC(C)=O (stereo not drawn) [ECDA] | -11,3±0,1 Kcal/mol | -19.2 cal/mol/K | 89 ± 1 µM | – | – | – | – | – | – | – | – | – | – | – | – | –
2 | CC(=O)N[C@@H]1[C@@H](O[C@@H]2O[C@@H](C)[C@H](O[C@H]3O[C@H](CO)[C@@H](O)[C@H](O)[C@H]3O)[C@@H](O[C@@H]3O[C@@H](C)[C@H](O)[C@@H](O)[C@H]3O[C@@H]3O[C@@H](C)[C@H](O)[C@@H](O)[C@H]3O[C@@H]3O[C@H](CO)[C@@H](O)[C@H](O[C@@H]4O[C@@H](C)[C@H](O[C@H]5O[C@H](CO)[C@@H](O)[C@H](O)[C@H]5O)[C@@H](O[C@@H]5O[C@@H](C)[C@H](O)[C@@H](O)[C@H]5O[C@@H]5O[C@@H](C)[C@H](O)[C@@H](O)[C@H]5O)[C@H]4O)[C@H]3NC(C)=O)[C@H]2O)[C@H](O)[C@@H](CO)O[C@H]1O [[AB(E)CD]2] | -17,7±0,7 Kcal/mol | -31,7 cal/mol/K | 1.04 µM | 1.5 µM | 0,13 s-1 | 8,30E+04 M-1.s-1 | 1.04 µM | 0.7 µM | 1 µM | 0,074±0,004 s-1 | 1.09 µM | – | – | – | – | –
3 | CO[C@@H]1O[C@@H](C)[C@H](O[C@H]2O[C@H](CO)[C@@H](O)[C@H](O)[C@H]2O)[C@@H](O[C@@H]2O[C@@H](C)[C@H](O)[C@@H](O)[C@H]2O[C@@H]2O[C@@H](C)[C@H](O)[C@@H](O)[C@H]2O[C@@H]2O[C@H](CO)[C@@H](O)[C@H](O)[C@H]2NC(C)=O)[C@H]1O [DAB(E)C] | – | – | – | > 1100 µM | – | – | – | > 1000 µM | – | – | – | – | – | – | – | –
4 | COC1OC(C)C(OC2OC(CO)C(O)C(O)C2O)C(OC2OC(C)C(O)C(O)C2OC2OC(C)C(O)C(O)C2OC2OC(CO)C(O)C(OC3OC(C)C(OC4OC(CO)C(O)C(O)C4O)C(OC4OC(C)C(O)C(O)C4OC4OC(C)C(O)C(O)C4OC4OC(CO)C(O)C(O)C4NC(C)=O)C3O)C2NC(C)=O)C1O (stereo not drawn) [DAB(E)CDAB(E)C] | -19,5±01,2 Kcal/mol | -41,2 cal/mol/K | 5.4 µM | 5 µM | 0,29 s-1 | 5,90E+04 M-1.s-1 | 5.4 µM | 5 ± 1.4 µM | 5.32 µM | 0,123±0,04 s-1 | 4.47 µM | only an order of magnitude higher | – | – | – | –
5 | COC1OC(C)C(OC2OC(CO)C(O)C(O)C2O)C(OC2OC(C)C(O)C(O)C2OC2OC(C)C(O)C(O)C2OC2OC(CO)C(O)C(OC3OC(C)C(OC4OC(CO)C(O)C(O)C4O)C(OC4OC(C)C(O)C(O)C4O)C3O)C2NC(C)=O)C1O (stereo not drawn) [B(E)CDAB(E)C] | -19,5±0,2 Kcal/mol | -36,6 cal/mol/K | 0.47 µM | 0.16 µM | 0,05 s-1 | 3,10E+05 M-1.s-1 | 0.47 µM | 0.22 µM | 0.61 µM | 0,068±0,03 s-1 | 0.75 µM | – | about three orders of magnitude more effective | – | – | –
6 | CC(=O)N[C@@H]1[C@@H](O[C@@H]2O[C@@H](C)[C@H](O[C@H]3O[C@H](CO)[C@@H](O)[C@H](O)[C@H]3O)[C@@H](O[C@@H]3O[C@@H](C)[C@H](O)[C@@H](O)[C@H]3O[C@@H]3O[C@@H](C)[C@H](O)[C@@H](O)[C@H]3O[C@@H]3O[C@H](CO)[C@@H](O)[C@H](O[C@@H]4O[C@@H](C)[C@H](O[C@H]5O[C@H](CO)[C@@H](O)[C@H](O)[C@H]5O)[C@@H](O[C@@H]5O[C@@H](C)[C@H](O)[C@@H](O)[C@H]5O[C@@H]5O[C@@H](C)[C@H](O)[C@@H](O)[C@H]5O[C@@H]5O[C@H](CO)[C@@H](O)[C@H](O[C@@H]6O[C@@H](C)[C@H](O[C@H]7O[C@H](CO)[C@@H](O)[C@H](O)[C@H]7O)[C@@H](O[C@@H]7O[C@@H](C)[C@H](O)[C@@H](O)[C@H]7O[C@@H]7O[C@@H](C)[C@H](O)[C@@H](O)[C@H]7O)[C@H]6O)[C@H]5NC(C)=O)[C@H]4O)[C@H]3NC(C)=O)[C@H]2O)[C@H](O)[C@@H](CO)O[C@H]1O [[AB(E)CD]3] | -17,3±0,8 Kcal/mol | -30,6 cal/mol/K | 1.03 µM | 0.69 µM | 0,11 s-1 | 1,70E+05 M-1.s-1 | 1.03 µM | 0.32 µM | 0.56 µM | 0,075+0,005^(H) s-1 | 1.56 µM | – | – | – | – | –
7 | AEGEFPHGEIFHMMRRPDPAKC-COOH (AEGEFPHGEIFHMMRRPDPAKC-OH) [Peptide C17] | – | – | – | – | – | – | – | – | – | – | – | – | – | poor reactivity | – | –
8 | YLEDWIKYNNQK [Peptide B1] | -24,0 ±0,1 Kcal/mol | -54,6 cal/mol/K | – | – | – | – | 2.49 µM | – | – | – | – | – | – | – | 2.98 µM | ~3 µM
9 | CO[C@@H]1O[C@@H](C)[C@H](O)[C@@H](O)[C@H]1O[C@@H]1O[C@H](CO)[C@@H](O)[C@H](O[C@@H]2O[C@@H](C)[C@H](O[C@H]3O[C@H](CO)[C@@H](O)[C@H](O)[C@H]3O)[C@@H](O[C@@H]3O[C@@H](C)[C@H](O)[C@@H](O)[C@H]3O)[C@H]2O)[C@H]1NC(C)=O [B(E)CDA] | -14,2±0,1 Kcal/mol | -22,7 cal/mol/K | 3.35 µM | 3.5 µM | 2,4 s-1 | 7,00E+05 M-1.s-1 | 3.35 µM | 2.5 µM | 4.1 µM | – | – | – | – | – | – | –
10 | CO[C@@H]1O[C@@H](C)[C@H](O)[C@@H](O)[C@H]1O[C@@H]1O[C@@H](C)[C@H](O)[C@@H](O)[C@H]1O[C@@H]1O[C@H](CO)[C@@H](O)[C@H](O[C@@H]2O[C@@H](C)[C@H](O[C@H]3O[C@H](CO)[C@@H](O)[C@H](O)[C@H]3O)[C@@H](O)[C@H]2O)[C@H]1NC(C)=O [ECDAB] | -10,8±0,1 Kcal/mol | -19,6 cal/mol/K | 230 ± 2 µM | 300 µM | – | – | 230 ± 2 µM | 354 ± 40 µM | – | – | – | – | – | – | – | –
